Results taken from ChEMBL document CHEMBL4229479, “Synthesis and evaluation of panaxatriol derivatives as Na+, K+-ATPase inhibitors” (Bioorg Med Chem Lett, 2018).

System: not listed separately
Test: Arrhythmogenic activity in Langendorff-perfused heart rat model at 0.26 umol/L administered for 30 mins following 60 mins perfusion with K-H solution
Type: toxicity, tissue-based
Conditions: 0.5 h, 0.26 µM

SMILES	Activity
COC(=O)CC[C@]1(C)[C@H]2C[C@@H](O)[C@@H]3[C@@H]([C@@]4(C)CCCC(C)(C)O4)CC[C@@]3(C)[C@]2(C)CC(=O)[C@H]1C(C)(C)O	0%
C[C@H]1O[C@@H](O[C@H]2[C@@H](O)C[C@H](O[C@H]3[C@@H](O)C[C@H](O[C@H]4CC[C@@]5(C)[C@H](CC[C@@H]6[C@@H]5C[C@@H](O)[C@]5(C)[C@@H](C7=CC(=O)OC7)CC[C@]65O)C4)O[C@@H]3C)O[C@@H]2C)C[C@H](O)[C@@H]1O [DIGOXIN]	50%

Target: Sodium/potassium-transporting ATPase
Test: Inhibition of human Na+/K+-ATPase assessed as reduction in inorganic phosphate release from ATP incubated for 15 mins followed by ATP addition measured over 15 mins in presence of Na+/K+ by colorimetric method
Type: protein-complex assay
Conditions: not given

SMILES	IC50
CC1(C)CCC[C@](C)([C@H]2CC[C@]3(C)[C@@H]2[C@H](OCc2ccccc2)C[C@@H]2[C@@]4(C)CCC(=O)C(C)(C)[C@@H]4[C@@H](OCc4ccccc4)C[C@]23C)O1	870 nM
CC1(C)CCC[C@](C)([C@H]2CC[C@]3(C)[C@@H]2C(=O)C[C@@H]2[C@@]4(C)CCC(=O)OC(C)(C)[C@@H]4C(=O)C[C@]23C)O1	1130 nM
CC1(C)CCC[C@](C)([C@H]2CC[C@]3(C)[C@@H]2[C@H](O)C[C@@H]2[C@@]4(C)CCC(=O)OC(C)(C)[C@@H]4C(=O)C[C@]23C)O1	1180 nM
CC1(C)CCC[C@](C)([C@H]2CC[C@]3(C)[C@@H]2[C@H](O)C[C@@H]2[C@@]4(C)CCC(=O)C(C)(C)[C@@H]4C(=O)C[C@]23C)O1	810 nM
C=CCO[C@H]1C[C@]2(C)[C@H](C[C@@H](O)[C@@H]3[C@@H]([C@@]4(C)CCCC(C)(C)O4)CC[C@]32C)[C@@]2(C)CCC(=O)C(C)(C)[C@H]12	910 nM
CC1(C)CCC[C@](C)([C@H]2CC[C@]3(C)[C@@H]2[C@H](O)C[C@@H]2[C@@]4(C)CC[C@H](O)C(C)(C)[C@@H]4[C@@H](O)C[C@]23C)O1 [PANAXATRIOL]	1090 nM
CC1(C)CCC[C@](C)([C@H]2CC[C@]3(C)[C@@H]2[C@H](O)C[C@@H]2[C@@]4(C)CCC(=O)C(C)(C)[C@@H]4[C@@H](O)C[C@]23C)O1	1140 nM
CCOC(=O)NC(=S)O[C@H]1CC[C@]2(C)[C@H]3C[C@@H](O)[C@@H]4[C@@H]([C@@]5(C)CCCC(C)(C)O5)CC[C@@]4(C)[C@]3(C)CC(=O)[C@H]2C1(C)C	1380 nM
CC1(C)CCC[C@](C)([C@H]2CC[C@]3(C)[C@@H]2[C@H](O)C[C@@H]2[C@@]4(C)Cc5c([nH]c6ccc(F)cc56)C(C)(C)[C@@H]4C(=O)C[C@]23C)O1	910 nM
CC1(C)CCC[C@](C)([C@H]2CC[C@]3(C)[C@@H]2[C@H](O)C[C@@H]2[C@@]4(C)CC[C@H](O)C(C)(C)[C@@H]4C(=O)C[C@]23C)O1	1180 nM
CCO[C@H]1CC[C@]2(C)[C@H]3C[C@@H](O)[C@@H]4[C@@H]([C@@]5(C)CCCC(C)(C)O5)CC[C@@]4(C)[C@]3(C)CC(=O)[C@H]2C1(C)C	1140 nM
C=C(C)[C@@H]1C(=O)C[C@]2(C)[C@H](C[C@@H](O)[C@@H]3[C@@H]([C@@]4(C)CCCC(C)(C)O4)CC[C@]32C)[C@@]1(C)CCC(=O)OC	1090 nM
C=CCO[C@H]1CC[C@]2(C)[C@H]3C[C@@H](O)[C@@H]4[C@@H]([C@@]5(C)CCCC(C)(C)O5)CC[C@@]4(C)[C@]3(C)CC(=O)[C@H]2C1(C)C	1050 nM
CC1(C)CCC[C@](C)([C@H]2CC[C@]3(C)[C@@H]2C(=O)C[C@@H]2[C@@]4(C)CCC(=O)C(C)(C)[C@@H]4C(=O)C[C@]23C)O1	760 nM
CC1(C)CCC[C@](C)([C@H]2CC[C@]3(C)[C@@H]2[C@H](O)C[C@@H]2[C@@]4(C)CC[C@H](Oc5noc(=O)[nH]5)C(C)(C)[C@@H]4C(=O)C[C@]23C)O1	960 nM
CC1(C)CCC[C@](C)([C@H]2CC[C@]3(C)[C@@H]2C(=O)C[C@@H]2[C@@]4(C)CCC(=O)OC(C)(C)[C@@H]4[C@@H](O)C[C@]23C)O1	1230 nM
CC1(C)CCC[C@](C)([C@H]2CC[C@]3(C)[C@@H]2[C@H](O)C[C@@H]2[C@@]4(C)Cc5c([nH]c6ccccc56)C(C)(C)[C@@H]4C(=O)C[C@]23C)O1	770 nM

The next lines start with the values.

IC50	SMILES
410 nM	CC1(C)CCC[C@](C)([C@H]2CC[C@]3(C)[C@@H]2[C@H](O)C[C@@H]2[C@@]4(C)CCC(=O)NC(C)(C)[C@@H]4C(=O)C[C@]23C)O1
360 nM	CC1(C)CCC[C@](C)([C@H]2CC[C@]3(C)[C@@H]2[C@H](O)C[C@@H]2[C@@]4(C)Cc5c([nH]c6ccc(OC(F)(F)F)cc56)C(C)(C)[C@@H]4C(=O)C[C@]23C)O1
300 nM	CC1(C)CCC[C@](C)([C@H]2CC[C@]3(C)[C@@H]2[C@H](O)C[C@@H]2[C@@]4(C)CC[C@H](OCc5ccccc5)C(C)(C)[C@@H]4C(=O)C[C@]23C)O1
540 nM	CC1(C)CCC[C@](C)([C@H]2CC[C@]3(C)[C@@H]2[C@H](O)C[C@@H]2[C@@](C)(CCC(=O)O)CC(=O)C[C@]23C)O1
450 nM	CC1(C)CCC[C@](C)([C@H]2CC[C@]3(C)[C@@H]2[C@H](O)C[C@@H]2[C@@]4(C)CC[C@H](OCc5ccc(OC(F)(F)F)cc5)C(C)(C)[C@@H]4C(=O)C[C@]23C)O1
260 nM	COC(=O)CC[C@]1(C)[C@H]2C[C@@H](O)[C@@H]3[C@@H]([C@@]4(C)CCCC(C)(C)O4)CC[C@@]3(C)[C@]2(C)CC(=O)[C@H]1C(C)(C)O
700 nM	CC1(C)CCC[C@](C)([C@H]2CC[C@]3(C)[C@@H]2C(=O)C[C@@H]2[C@@]4(C)CCC(=O)C(C)(C)[C@@H]4[C@@H](O)C[C@]23C)O1
330 nM	CC1(C)CCC[C@](C)([C@H]2CC[C@]3(C)[C@@H]2[C@H](O)C[C@@H]2[C@@]4(C)CCC(=O)C(C)(C)[C@@H]4[C@@H](OCc4ccccc4)C[C@]23C)O1
750 nM	C=CCO[C@H]1C[C@]2(C)[C@H](C[C@@H](OCC=C)[C@@H]3[C@@H]([C@@]4(C)CCCC(C)(C)O4)CC[C@]32C)[C@@]2(C)CCC(=O)C(C)(C)[C@H]12
410 nM	COC(=O)CC[C@@]1(C)CC(=O)C[C@]2(C)[C@@H]1C[C@@H](O)[C@@H]1[C@@H]([C@@]3(C)CCCC(C)(C)O3)CC[C@]12C
